From patent publication US20210130790A1, “Infected Cell Cultures” (Merck Patent GmbH, priority 2017, published 2021)

System: Pb-Luc (Plasmodium berghei constitutively expressing luciferase) sporozoite infection of HC-04 3D cultures
Test: Drug activity on Pb-Luc sporozoite infection of HC-04 3D cultures (spheroids), luciferase readout
Assay type: cell-based
Procedure: FIG. 19—Analysis of drug activity in Pb infected-HC-04 spheroids. Dose-response curve of 3D cultures treated with ATQ. Results are expressed as percentage of infection normalized to the non-treated control. Results are represented as the mean of up to two independent experiments.
Initially, a preliminary assay employing reporter lines of Plasmodium berghei, constitutively expressing luciferase (Pb-Luc) or GFP (Pb-GFP), was performed to optimize the range of cell-to-sporozoite ratios and mode of contact. Pb-Luc parasites enable measuring infection by luminescence readings of cell lysates following addition of the luciferin substrate. Pb-GFP parasites enable measuring infection flow cytometry analysis. Such analyses allow measuring the percentage of invaded cells (% GFP-positive cells) and the development of the parasite inside the hepatic cells (GFP intensity). […]
HC-04 3D cultures were infected with Pb-Luc in the optimized conditions described above (cell density of 2.5×10^4 cell/well in a 1:2 ratio). The assessment of drug effect in the infection was performed by incubating the drug at a range of concentrations from 0.01 to 100 nM for 1 hour before incubation with the sporozoites and the readout was performed 48 hours after sporozoites addition, described as incubation regimen (A) in the detailed description of the invention section (FIG. 1). […]

Structure (SMILES): O=C1C(O)=C([C@H]2CC[C@H](c3ccc(Cl)cc3)CC2)C(=O)c2ccccc21 [ATQ, Atovaquone]
- IC50 (Plasmodium berghei, HC04, 2.5×10^4 cell/well, 1:2 cell-to-sporozoite ratio, drug added 1 hour before sporozoites, readout 48 hours after sporozoite addition (regimen A), read-out: half inhibitory concentration (IC50) for sporozoite infection): 0.6 nM
- decrease of infection (highest concentrations tested (range 0.01 to 100 nM), readout 48 hours, normalized to non-treated control): more than 90%
